Laboratory results taken from ChEMBL document CHEMBL1148525, “Discovery of huperzine A-tacrine hybrids as potent inhibitors of human cholinesterases targeting their midgorge recognition sites” (J Med Chem, 2006).
pKi: −log10 of the molar value.

Tests used:
Cholinesterase = Cholinesterase (Homo sapiens, UniProt P06276)
Description: Inhibition of human BuChE

Acetylcholinesterase = Acetylcholinesterase (Homo sapiens, UniProt P22303)
Acetylcholinesterase, sequence (P22303 whole entry): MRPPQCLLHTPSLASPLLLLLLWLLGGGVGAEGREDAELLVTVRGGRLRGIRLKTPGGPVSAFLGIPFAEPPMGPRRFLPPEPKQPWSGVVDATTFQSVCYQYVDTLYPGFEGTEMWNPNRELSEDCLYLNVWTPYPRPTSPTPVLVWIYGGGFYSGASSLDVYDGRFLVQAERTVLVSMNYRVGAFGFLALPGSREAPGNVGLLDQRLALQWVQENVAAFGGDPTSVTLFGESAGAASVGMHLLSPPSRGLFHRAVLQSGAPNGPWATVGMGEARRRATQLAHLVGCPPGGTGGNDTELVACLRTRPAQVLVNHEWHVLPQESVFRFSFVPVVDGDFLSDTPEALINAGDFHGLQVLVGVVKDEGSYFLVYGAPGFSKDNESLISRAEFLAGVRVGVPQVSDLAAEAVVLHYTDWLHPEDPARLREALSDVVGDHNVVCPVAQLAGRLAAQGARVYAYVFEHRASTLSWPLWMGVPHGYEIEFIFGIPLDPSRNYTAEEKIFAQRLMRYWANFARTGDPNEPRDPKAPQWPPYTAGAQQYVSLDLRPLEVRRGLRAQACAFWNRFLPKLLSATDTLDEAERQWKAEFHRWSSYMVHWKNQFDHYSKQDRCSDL

Cholinesterase, sequence (P06276 whole entry): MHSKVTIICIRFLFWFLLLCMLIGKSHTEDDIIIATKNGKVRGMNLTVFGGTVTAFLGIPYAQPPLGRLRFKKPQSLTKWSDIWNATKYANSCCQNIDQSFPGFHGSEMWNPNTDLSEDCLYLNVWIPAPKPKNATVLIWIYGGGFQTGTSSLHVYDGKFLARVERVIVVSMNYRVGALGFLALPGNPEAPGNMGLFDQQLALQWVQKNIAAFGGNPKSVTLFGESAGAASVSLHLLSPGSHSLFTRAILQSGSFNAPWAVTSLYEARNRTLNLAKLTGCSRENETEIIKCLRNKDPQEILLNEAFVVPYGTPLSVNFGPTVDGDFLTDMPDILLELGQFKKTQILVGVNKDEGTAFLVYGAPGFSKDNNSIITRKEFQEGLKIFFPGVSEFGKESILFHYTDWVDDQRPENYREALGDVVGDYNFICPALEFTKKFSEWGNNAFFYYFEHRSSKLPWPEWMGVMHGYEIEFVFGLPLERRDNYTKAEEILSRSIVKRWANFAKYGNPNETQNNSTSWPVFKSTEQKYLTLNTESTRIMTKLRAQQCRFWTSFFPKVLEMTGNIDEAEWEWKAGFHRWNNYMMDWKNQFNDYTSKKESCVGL

Compound `C/C=C1\C2C=C(C)C[C@]1(N)CC(NCCCCCCCNc1c3c(nc4ccccc14)CCCC3)C2` (stereo not given in full) has a pKi (Cholinesterase) of 7.51 and a pKi (Acetylcholinesterase) of 7.80.

For `C/C=C1\C2C=C(C)C[C@]1(N)CC(NCCCCCCCNc1c3c(nc4ccccc14)CCCC3)C2(C)C` (stereo not given in full), the pKi (Cholinesterase) was 7.68 and the pKi (Acetylcholinesterase) was 7.78.

`C/C=C1\[C@H]2C=C(C)C[C@]1(N)c1ccc(=O)[nH]c1C2` [HUPERZINE A] was tested, and the pKi (Cholinesterase) was < 6.00.
